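96-well plates; 48 h exposure; 5 concentrations. Endpoints by linear interpolation between flanking doses. Not reached: highest tested concentration assigned. Here, GI50 denotes the concentration required for 50% inhibition of growth.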 Calls of active or inactive are those of the source. Rule as the data show it: active = GI50 up to about 1.1 µM and inactive = higher.
What was measured:
Test in all cases: growth of human tumour cells (NCI), 48 h
A498 = system: A498
ACHN = system: ACHN
BT-549 = system: BT-549
EKVX = system: EKVX
HOP-62 = system: HOP-62
HT-29 = system: HT-29
K562 = system: K562
KM12 = system: KM12
M14 = system: M14
Malme-3M = system: Malme-3M
NCI-H23 = system: NCI-H23
PC-3 = system: PC-3
SN12C = system: SN12C
SR = system: SR
UACC-62 = system: UACC-62
SF-268 = system: SF-268
DU-145 = system: DU-145
Hs-578T = system: Hs-578T
HOP-92 = system: HOP-92

Row | Compound | GI50 (A498) | GI50 (ACHN) | GI50 (BT-549) | GI50 (EKVX) | GI50 (HOP-62) | GI50 (HT-29) | GI50 (K562) | GI50 (KM12) | GI50 (M14) | GI50 (Malme-3M) | GI50 (NCI-H23) | GI50 (PC-3) | GI50 (SN12C) | GI50 (SR) | GI50 (UACC-62) | GI50 (SF-268) | GI50 (DU-145) | GI50 (Hs-578T) | GI50 (HOP-92)
1 | CN(C)CCn1c(=O)c2ccc3c4c(nn3CCN(C)C)c3cc(O)ccc3n(c1=O)c24 | 0.198 µM (active) | < 0.0308 µM (active) | 0.879 µM (active) | 0.124 µM (active) | < 0.0316 µM (active) | < 0.01 µM (active) | 0.0459 µM (active) | 0.161 µM (active) | 0.397 µM (active) | 0.354 µM (active) | 0.0855 µM (active) | 0.0659 µM (active) | 0.0148 µM (active) | < 0.01 µM (active) | 0.172 µM (active) | – | – | – | –
2 | CC1CC2C(=O)N(c3ccccc3)C(=O)C2c2[nH]c3ccccc3c21 (stereo not drawn) | > 100 µM (inactive) | 57.7 µM (inactive) | – | > 100 µM (inactive) | – | > 100 µM (inactive) | 33 µM (inactive) | 58.5 µM (inactive) | 78.9 µM (inactive) | 46.1 µM (inactive) | 58.9 µM (inactive) | – | > 100 µM (inactive) | 29.2 µM (inactive) | > 100 µM (inactive) | > 100 µM (inactive) | – | – | –
3 | Cc1ccc(N/C(SCc2ccccc2)=C(\C(Cl)=C(Cl)Cl)[N+](=O)[O-])c(C)c1 | 22.2 µM (inactive) | 43 µM (inactive) | 19.2 µM (inactive) | 33.4 µM (inactive) | 8.13 µM (inactive) | 29.8 µM (inactive) | – | 17.2 µM (inactive) | 16.9 µM (inactive) | 21.4 µM (inactive) | 19.5 µM (inactive) | 37.2 µM (inactive) | 20.4 µM (inactive) | – | 23.6 µM (inactive) | 14.3 µM (inactive) | 6.31 µM (inactive) | 39.1 µM (inactive) | –
4 | C=C1C(=O)O[C@@H]2/C=C(C)/C=C\[C@@H]3O[C@@]3(C)C[C@@H](O)C12 (stereo partly drawn) | 15.8 µM (inactive) | 5.24 µM (inactive) | – | 3.89 µM (inactive) | 36.1 µM (inactive) | 10 µM (inactive) | 3.5 µM (inactive) | 15.5 µM (inactive) | 18.3 µM (inactive) | 12.7 µM (inactive) | 13.2 µM (inactive) | 24.5 µM (inactive) | 13.4 µM (inactive) | – | 12.9 µM (inactive) | 26.4 µM (inactive) | 3.63 µM (inactive) | 39.2 µM (inactive) | 5.98 µM (inactive)
5 | C#CCCCC(=C)C[C@@H]1OC(=O)[C@H](C)[C@@H]1O | > 100 µM (inactive) | > 100 µM (inactive) | – | > 100 µM (inactive) | > 100 µM (inactive) | – | > 100 µM (inactive) | > 100 µM (inactive) | > 100 µM (inactive) | – | > 100 µM (inactive) | > 100 µM (inactive) | > 100 µM (inactive) | – | – | – | > 100 µM (inactive) | – | > 100 µM (inactive)
6 | C#CCOCn1cc(C)c(=O)[nH]c1=O | > 100 µM (inactive) | > 100 µM (inactive) | – | > 100 µM (inactive) | > 100 µM (inactive) | > 100 µM (inactive) | > 100 µM (inactive) | > 100 µM (inactive) | > 100 µM (inactive) | > 100 µM (inactive) | > 100 µM (inactive) | > 100 µM (inactive) | > 100 µM (inactive) | > 100 µM (inactive) | > 100 µM (inactive) | > 100 µM (inactive) | > 100 µM (inactive) | > 100 µM (inactive) | –
7 | C/C=C1\CN(C(=O)OC(C)(C)C)C1C(=O)OC(C)(C)C (stereo not drawn) | > 100 µM (inactive) | > 100 µM (inactive) | > 100 µM (inactive) | > 100 µM (inactive) | > 100 µM (inactive) | > 100 µM (inactive) | > 100 µM (inactive) | – | > 100 µM (inactive) | > 100 µM (inactive) | > 100 µM (inactive) | > 100 µM (inactive) | > 100 µM (inactive) | > 100 µM (inactive) | > 100 µM (inactive) | > 100 µM (inactive) | – | 27.7 µM (inactive) | > 100 µM (inactive)
8 | O=C(NCCCCCCCCNC(=O)c1cnc2ccccc2n1)c1cnc2ccccc2n1 | > 100 µM (inactive) | > 100 µM (inactive) | – | > 100 µM (inactive) | > 100 µM (inactive) | > 100 µM (inactive) | > 100 µM (inactive) | > 100 µM (inactive) | > 100 µM (inactive) | > 100 µM (inactive) | > 100 µM (inactive) | – | > 100 µM (inactive) | > 100 µM (inactive) | > 100 µM (inactive) | > 100 µM (inactive) | – | – | > 100 µM (inactive)
9 | C=C(CO)CC(O)c1cc(OC)ccc1OC (stereo not drawn) | – | > 100 µM (inactive) | – | > 100 µM (inactive) | > 100 µM (inactive) | > 100 µM (inactive) | > 100 µM (inactive) | > 100 µM (inactive) | > 100 µM (inactive) | > 100 µM (inactive) | – | – | > 100 µM (inactive) | – | > 100 µM (inactive) | > 100 µM (inactive) | – | – | > 100 µM (inactive)
10 | N#Cc1nc(/C=C/c2cccs2)oc1N | > 100 µM (inactive) | 76.9 µM (inactive) | – | 33.7 µM (inactive) | > 100 µM (inactive) | > 100 µM (inactive) | 82.4 µM (inactive) | > 100 µM (inactive) | 97.5 µM (inactive) | – | – | 97.1 µM (inactive) | > 100 µM (inactive) | 13.1 µM (inactive) | > 100 µM (inactive) | > 100 µM (inactive) | > 100 µM (inactive) | > 100 µM (inactive) | 35.8 µM (inactive)
11 | Cc1cc(C)c(N[S+]([O-])c2cccc([N+](=O)[O-])c2)c(C)c1 (stereo not drawn) | > 100 µM (inactive) | > 100 µM (inactive) | > 100 µM (inactive) | – | > 100 µM (inactive) | > 100 µM (inactive) | > 100 µM (inactive) | > 100 µM (inactive) | > 100 µM (inactive) | > 100 µM (inactive) | > 100 µM (inactive) | > 100 µM (inactive) | > 100 µM (inactive) | > 100 µM (inactive) | – | > 100 µM (inactive) | > 100 µM (inactive) | – | > 100 µM (inactive)
12 | Oc1ccc(-c2csc(N/N=C3\NC/C(=C/c4ccc5c(c4)OCO5)S3)n2)cc1O | – | 17 µM (inactive) | – | 26.4 µM (inactive) | 22.1 µM (inactive) | 38.5 µM (inactive) | – | 17.3 µM (inactive) | 11.2 µM (inactive) | – | 9.95 µM (inactive) | 26.4 µM (inactive) | 33.5 µM (inactive) | – | – | – | 26.7 µM (inactive) | – | 38.5 µM (inactive)
13 | COc1ccc(C(=O)c2[nH]c(Nc3ccc(Cl)cc3)c(C(=S)Nc3ccccc3)c2N)cc1 | > 100 µM (inactive) | > 100 µM (inactive) | > 100 µM (inactive) | > 100 µM (inactive) | > 100 µM (inactive) | 24.8 µM (inactive) | > 100 µM (inactive) | > 100 µM (inactive) | – | > 100 µM (inactive) | > 100 µM (inactive) | – | > 100 µM (inactive) | > 100 µM (inactive) | > 100 µM (inactive) | > 100 µM (inactive) | > 100 µM (inactive) | > 100 µM (inactive) | > 100 µM (inactive)
14 | COc1ccc(NC(=O)NNS(=O)(=O)c2ccc(C)cc2)cc1 | > 100 µM (inactive) | 91.6 µM (inactive) | – | > 100 µM (inactive) | > 100 µM (inactive) | > 100 µM (inactive) | > 100 µM (inactive) | 91.6 µM (inactive) | > 100 µM (inactive) | > 100 µM (inactive) | 52.8 µM (inactive) | 71 µM (inactive) | > 100 µM (inactive) | 63 µM (inactive) | 70 µM (inactive) | > 100 µM (inactive) | > 100 µM (inactive) | > 100 µM (inactive) | > 100 µM (inactive)
15 | C=CC(=O)NCCSCCCOC1(C(=O)O)CC(O)C(NC(C)=O)C(C(O)C(O)CO)O1 (stereo not drawn) | – | > 100 µM (inactive) | – | – | – | > 100 µM (inactive) | > 100 µM (inactive) | > 100 µM (inactive) | > 100 µM (inactive) | > 100 µM (inactive) | > 100 µM (inactive) | – | > 100 µM (inactive) | > 100 µM (inactive) | > 100 µM (inactive) | – | – | – | > 100 µM (inactive)
16 | Sc1nn2c(Cc3ccccc3)nnc2s1 | – | > 100 µM (inactive) | – | > 100 µM (inactive) | > 100 µM (inactive) | > 100 µM (inactive) | > 100 µM (inactive) | > 100 µM (inactive) | > 100 µM (inactive) | > 100 µM (inactive) | > 100 µM (inactive) | > 100 µM (inactive) | > 100 µM (inactive) | – | > 100 µM (inactive) | > 100 µM (inactive) | > 100 µM (inactive) | > 100 µM (inactive) | > 100 µM (inactive)
17 | COC(=O)/C1=C/c2c([nH]c3ccccc23)/C(C(=O)OC)=C\c2c1[nH]c1ccccc21 [CAULERPIN] | 39.2 µM (inactive) | 22.2 µM (inactive) | 25.6 µM (inactive) | > 50 µM (inactive) | 10.9 µM (inactive) | – | – | 35.2 µM (inactive) | 25.2 µM (inactive) | 12.9 µM (inactive) | 38.1 µM (inactive) | – | 34.4 µM (inactive) | – | 19.9 µM (inactive) | 19.5 µM (inactive) | 42 µM (inactive) | 16.8 µM (inactive) | –
18 | O=c1c(O)c(-c2ccc(O)cc2O)oc2cc(O)cc(O)c12 [MORIN] | – | > 100 µM (inactive) | – | 30.3 µM (inactive) | > 100 µM (inactive) | > 100 µM (inactive) | > 100 µM (inactive) | > 100 µM (inactive) | > 100 µM (inactive) | > 100 µM (inactive) | > 100 µM (inactive) | > 100 µM (inactive) | > 100 µM (inactive) | – | – | > 100 µM (inactive) | > 100 µM (inactive) | > 100 µM (inactive) | > 100 µM (inactive)

Source: ChEMBL document CHEMBL1201862, “PubChem BioAssay data set” (2004)
